Measured values taken from patent US20260048081A1, “COMBINED TREATMENT COMPOSITION FOR TUMOR TREATMENT AND COMBINED TREATMENT METHOD” (ADVACCINE (SUZHOU) BIOPHARMACEUTICALS CO., LTD., priority 2022, published 2026).

What was measured:
4T1 breast cancer cell = assay type: in vivo; conditions: 2 μg/kg cisplatin (CDDP alone printed 2 g/kg), 50 μg/mouse CpG, 50 μg/mouse R848
B16-F10 mouse melanoma [1] = test: B16-F10 mouse melanoma model, small-volume tumors (Example 9); assay type: in vivo; conditions: 4 mg/kg cisplatin, intraperitoneal injection, days 7, 14, 21
Protocol: This example further explored the effect of cisplatin combined with CR108 adjuvant on mouse melanoma. A B16-F10 mouse melanoma model was constructed by subcutaneously inoculating tumor cells on the right side of the back of the mice proximal to the hip position at 3×10^5 cells/mouse, […]
Specific mouse administration groups were as follows: (1) a PBS negative control group, (2) CDDP^Lo (2 μg/kg cisplatin), (3) CR108 (50 μg/mouse CpG1018 and 50 μg/mouse water-soluble R848), (4) CDDP^Lo+CR108 (2 μg/kg cisplatin, 50 μg/mouse CpG1018 and 50 μg/mouse water-soluble R848), (5) CDDP^Lo+C′ (2 μg/kg cisplatin and 50 μg/mouse CpG1018), (6) CDDP^Lo+R (2 μg/kg cisplatin and 50 μg/mouse water-soluble R848), and (7) CDDP^Hi (4 mg/kg cisplatin, regular cisplatin chemotherapeutic drug dose). Except for Group (7), which received a high dose of cisplatin by intraperitoneal injection, all other groups were administered by subcutaneous injection near the tumor. […]
On day 4 after the last administration, mice were sacrificed, tumor tissues of the mice were separated and weighed using an analytical balance; the weights were recorded, and the tumors were photographed for recording. […]

B16-F10 mouse melanoma [2] = test: Large-volume B16-F10 melanoma model, intratumoral injection: tumor volume and survival (Examples 10-13); assay type: in vivo
Protocol: To establish a B16-F10 mouse melanoma model, the tumor cells were inoculated at 3×10^5 cells/mouse. Once the tumors reached an appropriate size with an average of about 200 mm^3, suitable mice were selected based on the tumor size and body weight and given drugs according to the following groups. […] Specific groups were as follows: Group G1, normal saline (NS) control group: mice were treated once a week; Group G2: mice received an intratumoral injection of CDDP, followed by an intratumoral injection of CR108 two days later, once a week; Group G3: for each administration cycle, mice first received an intratumoral injection of CDDP, followed by an intratumoral injection of CR108 two days later, which was repeated every other day, with four administrations constituting one cycle, and after a one-week interruption, the next administration cycle was repeated; and Group G4: after CDDP and CR108 were mixed, mice received an intratumoral injection of the mixture, twice a week. After the administration was completed according to the flowchart, the administration was stopped, and the tumor size and physiological states of the mice were monitored during this period. When the tumor volume of each mouse exceeded 2000 mm^3 for the first time or the body weight of the animal was less than 80% of the body weight before the first administration, it was considered an ethical death, and the animal was euthanized. The remaining mice continued to be observed.
Experimental groups were as follows: (1) a normal saline control group, with the same administration protocol as that in Group G1 of Example 10; (2) CDDP^Hi+CR108 (at a cisplatin dose of 0.4 mg/kg), with the same administration protocol as that in Group G2 of Example 10 (qw); (3) CDDP^Lo+CR108 (at a cisplatin dose of 2 μg/kg), with the same administration protocol as that in Group G3 of Example 10 (qod); and (4) CDDP^Hi+CR108 (0.4 mg/kg cisplatin), with the same administration protocol as that in Group G3 of Example 10 (qod); the dose of CR108 used in each group was 50 μg/mouse CpG1018 and 50 μg/mouse water-soluble R848. […]

[3] = tested on: BALB/c mouse spleen cells; test: In vitro stimulation of mouse spleen cells to secrete TNF-α; assay type: cell-based; conditions: FIG. 9; stimulated 18-20 h; research-grade versus pharmaceutical grade reagent
Protocol: Drug preparation: The preparation and use of the research-grade reagents CpG1826 and R848 (water soluble) were the same as those in Example 1; the pharmaceutical agent R848 (lipid soluble) was dissolved in DMSO to prepare a 10 mg/mL stock solution, 0.1 mL of the stock solution was taken for each administration, the volume was brought to 1 mL, and a 1 mg/mL solution was prepared; CpG1018 was prepared at 1 mg/ml with PBS before each administration.
The spleens of three blank BABL/c mice were added to a 30 mm cell culture dish, 1640 medium was added, and the resulting mixture was ground, filtered through a copper screen, and centrifuged at 1500 rpm for 3 min. The supernatant was discarded, 2 mL of a red blood cell lysis buffer was added, and the samples were left to stand for 2 min, terminated with 4 mL of 1640+10% FBS, and centrifuged at 1500 rpm for 3 min. The supernatant was discarded, the samples were resuspended in 1640+10% FBS, and the cells were counted. The cells were plated in a 96-well cell culture plate at 2×10^6 cells/well, with 200 μL of culture medium per well. […] After the cells were stimulated for 18-20 h, the cell culture supernatant was collected, and the expression of cytokines in each 10^6 mouse spleen cells was determined by using a mouse TNF-α detection kit (purchased from NeoBioscience Technology Co., Ltd., Catalog No. EMC102a.96) according to the instructions.

Compound	tumor volume growth curve (4T1 breast cancer cell; Example 7, FIG. 12, 6 mice per group)	tumor weight (4T1 breast cancer cell; Example 7, FIG. 13, end of the experiment)	mouse death during the administration period (B16-F10 mouse melanoma [1])	tumor volume compared with the normal saline control group (B16-F10 mouse melanoma [2]; Example 12, FIG. 31, day 28, CDDP 4 mg/kg once a week, CR108 G3 protocol, CDDP+CR108 0.4 mg/kg cisplatin G3 protocol)	day on which all mice were euthanized due to tumor volume exceeding 2000 mm^3 (B16-F10 mouse melanoma [2]; Example 12, 4 mg/kg CDDP once a week) [days]	median survival time (B16-F10 mouse melanoma [2]; Example 12, CDDP 4 mg/kg once a week, CR108 alone G3 protocol, CDDP+CR108 0.4 mg/kg CDDP, not counted on day 45, saline control 26 days) [days]	levels of TNF-α cytokines produced from mouse spleen cells stimulated in vitro [3]
[NH2][Pt]([NH2])([Cl])[Cl] [CDDP, cisplatin]	grew rapidly	too large and overweight	One mouse	significantly lower than that in the normal saline control group	36	36	–
CCOCc1nc2c(N)nc3ccccc3c2n1CC(C)(C)O [R848 (water soluble)]	–	–	–	–	–	–	comparable
